Assay results published in PMC10534724, “Interaction of ALK Inhibitors with Polyspecific Organic Cation Transporters and the Impact of Substrate-Dependent Inhibition on the Prediction of Drug–Drug Interactions” (Pharmaceutics, 2023).
Where two headings read alike, the source gives them in different places. Blank lines part the entries; values can stand above or below the molecule they belong to.

What was measured:
Assay type in all cases: in vitro ADME
[1] = molecular target: T1, hOCT2 (Homo sapiens, UniProt O15244); assay: Inhibition of hOCT2-mediated substrate uptake in transfected HEK293 cells; set-up: expressed in transfected cells; details: for inhibition at 20 µM: 20 µM inhibitor, 1 µM mIBG; for In vivo DDI study recommendation, hOCT2: FDA-recommended criteria
T1 sequence (O15244 1-555): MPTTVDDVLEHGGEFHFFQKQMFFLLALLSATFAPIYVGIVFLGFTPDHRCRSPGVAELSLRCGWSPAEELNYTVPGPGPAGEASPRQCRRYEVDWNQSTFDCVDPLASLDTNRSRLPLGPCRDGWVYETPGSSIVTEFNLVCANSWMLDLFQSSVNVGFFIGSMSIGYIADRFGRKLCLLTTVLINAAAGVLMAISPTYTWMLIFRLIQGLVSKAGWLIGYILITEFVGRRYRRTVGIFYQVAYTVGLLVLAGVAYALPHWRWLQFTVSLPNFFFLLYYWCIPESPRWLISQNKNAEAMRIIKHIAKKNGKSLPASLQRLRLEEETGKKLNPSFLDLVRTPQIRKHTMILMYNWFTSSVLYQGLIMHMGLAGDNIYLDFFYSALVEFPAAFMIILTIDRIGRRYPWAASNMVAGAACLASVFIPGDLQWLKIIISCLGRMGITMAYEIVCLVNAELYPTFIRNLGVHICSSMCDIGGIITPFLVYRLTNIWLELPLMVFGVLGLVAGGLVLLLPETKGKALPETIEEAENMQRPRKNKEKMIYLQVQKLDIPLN

[2] = molecular target: T2, hMATE2-K (Homo sapiens, UniProt Q86VL8); assay: Inhibition of hMATE2-K-mediated substrate uptake in transfected HEK293 cells (pH 8.0); details: for inhibition at 20 µM / IC50: HEK293, 2 min, 37 °C; for inhibition at 20 µM: 20 µM inhibitor, 1 µM mIBG; for IC50: mean ± SD; for In vivo DDI study recommendation, hMATE2-K: FDA-recommended criteria
T2 construct: expressed in transfected cells
T2 sequence (Q86VL8 1-566 isoform Q86VL8-3): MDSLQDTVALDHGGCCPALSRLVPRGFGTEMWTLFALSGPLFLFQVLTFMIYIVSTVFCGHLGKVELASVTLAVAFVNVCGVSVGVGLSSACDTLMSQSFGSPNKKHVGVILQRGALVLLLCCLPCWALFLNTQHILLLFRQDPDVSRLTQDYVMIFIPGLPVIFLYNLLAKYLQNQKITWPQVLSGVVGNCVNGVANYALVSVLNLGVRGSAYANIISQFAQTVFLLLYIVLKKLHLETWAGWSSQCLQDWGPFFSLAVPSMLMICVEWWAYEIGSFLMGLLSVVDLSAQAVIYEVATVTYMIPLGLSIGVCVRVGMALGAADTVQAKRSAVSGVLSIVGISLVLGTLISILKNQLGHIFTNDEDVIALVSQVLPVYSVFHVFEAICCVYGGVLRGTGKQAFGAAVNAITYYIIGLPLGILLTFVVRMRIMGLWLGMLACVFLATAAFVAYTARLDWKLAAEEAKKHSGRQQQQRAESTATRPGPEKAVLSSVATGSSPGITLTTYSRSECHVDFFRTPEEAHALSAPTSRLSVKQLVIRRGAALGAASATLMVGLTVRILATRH

[3] = molecular target: T3, hOCT1 (Homo sapiens, UniProt O15245); assay: Inhibition of hOCT1-mediated substrate uptake in transfected HEK293 cells; details: for inhibition at 20 µM: 20 µM inhibitor, 1 µM mIBG; for In vivo DDI study recommendation, hOCT1: FDA-recommended criteria
T3 construct: expressed in transfected cells
T3 sequence (O15245 1-554): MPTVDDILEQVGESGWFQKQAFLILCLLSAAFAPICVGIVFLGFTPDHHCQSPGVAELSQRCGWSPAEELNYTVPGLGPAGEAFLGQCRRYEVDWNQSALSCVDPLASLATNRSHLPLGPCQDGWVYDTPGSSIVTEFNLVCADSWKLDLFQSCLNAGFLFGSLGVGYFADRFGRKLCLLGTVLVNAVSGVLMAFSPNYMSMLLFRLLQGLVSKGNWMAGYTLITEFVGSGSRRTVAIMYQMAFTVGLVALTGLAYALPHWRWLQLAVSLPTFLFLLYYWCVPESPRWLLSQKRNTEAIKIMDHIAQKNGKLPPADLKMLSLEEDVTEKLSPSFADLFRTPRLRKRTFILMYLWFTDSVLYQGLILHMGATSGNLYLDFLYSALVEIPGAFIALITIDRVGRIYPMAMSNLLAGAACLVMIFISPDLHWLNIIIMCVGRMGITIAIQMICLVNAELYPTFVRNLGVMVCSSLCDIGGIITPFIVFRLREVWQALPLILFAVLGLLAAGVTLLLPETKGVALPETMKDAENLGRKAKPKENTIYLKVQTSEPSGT

[4] = molecular target: T4, hOCT3 (Homo sapiens, UniProt O75751); assay: Inhibition of hOCT3-mediated substrate uptake in transfected HEK293 cells; details: for In vivo DDI study recommendation, hOCT3: FDA-recommended criteria
T4 construct: expressed in transfected cells
T4 sequence (O75751 1-556): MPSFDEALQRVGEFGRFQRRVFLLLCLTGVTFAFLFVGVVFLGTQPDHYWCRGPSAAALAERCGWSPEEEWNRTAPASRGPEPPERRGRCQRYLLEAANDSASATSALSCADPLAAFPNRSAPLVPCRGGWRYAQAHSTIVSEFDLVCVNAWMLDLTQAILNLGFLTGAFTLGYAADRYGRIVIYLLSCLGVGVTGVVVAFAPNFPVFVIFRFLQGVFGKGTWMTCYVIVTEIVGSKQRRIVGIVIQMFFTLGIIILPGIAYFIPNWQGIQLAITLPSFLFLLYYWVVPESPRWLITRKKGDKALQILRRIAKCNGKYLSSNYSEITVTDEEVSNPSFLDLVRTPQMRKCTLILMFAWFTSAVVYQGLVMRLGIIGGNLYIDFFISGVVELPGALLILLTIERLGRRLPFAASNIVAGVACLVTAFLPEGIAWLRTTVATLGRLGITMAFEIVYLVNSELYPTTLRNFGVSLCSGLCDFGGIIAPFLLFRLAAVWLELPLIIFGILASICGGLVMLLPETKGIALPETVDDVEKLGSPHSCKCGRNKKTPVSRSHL

[5] = molecular target: T5, hMATE1 (Homo sapiens, UniProt Q96FL8); assay: Inhibition of hMATE1-mediated substrate uptake in transfected HEK293 cells (pH 8.0); details: for inhibition at 20 µM: 20 µM inhibitor, 1 µM mIBG; for In vivo DDI study recommendation, hMATE1: FDA-recommended criteria
T5 construct: expressed in transfected cells
T5 sequence (Q96FL8 1-570): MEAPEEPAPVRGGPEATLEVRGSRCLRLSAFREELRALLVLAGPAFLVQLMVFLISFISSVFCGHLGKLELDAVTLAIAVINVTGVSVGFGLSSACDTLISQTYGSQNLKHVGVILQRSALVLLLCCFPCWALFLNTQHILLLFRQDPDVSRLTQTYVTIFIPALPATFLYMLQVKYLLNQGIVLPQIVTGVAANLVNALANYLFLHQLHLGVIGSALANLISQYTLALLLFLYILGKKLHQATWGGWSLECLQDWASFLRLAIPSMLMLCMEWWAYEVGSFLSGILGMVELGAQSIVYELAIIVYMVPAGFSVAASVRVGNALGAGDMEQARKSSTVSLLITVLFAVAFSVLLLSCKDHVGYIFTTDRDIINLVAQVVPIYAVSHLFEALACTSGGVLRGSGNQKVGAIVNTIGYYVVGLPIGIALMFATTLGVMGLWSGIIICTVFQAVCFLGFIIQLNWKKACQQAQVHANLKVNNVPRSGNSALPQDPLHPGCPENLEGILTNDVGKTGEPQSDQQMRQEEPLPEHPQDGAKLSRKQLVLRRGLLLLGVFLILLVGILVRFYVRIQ

- inhibition at 20 µM ([1]; HEK293, 2 min, 37 °C): ≤ 50%
- inhibition at 20 µM [2]: ≤ 50%
- inhibition at 20 µM ([3]; HEK293, 2 min, 37 °C): ≤ 50%
- inhibition at 20 µM ([4]; HEK293, 20 µM inhibitor, 1 µM mIBG, 2 min, 37 °C, read-out: inhibition of mIBG uptake by hOCT3): ≤ 50%
- inhibition at 20 µM ([5]; HEK293, 2 min, 37 °C): ≤ 50%
Compound: C[C@H]1Oc2cc(cnc2N)-c2c(nn(C)c2C#N)CN(C)C(=O)c2ccc(F)cc21 [lorlatinib]

- inhibition at 20 µM ([1]; HEK293, 2 min, 37 °C): ≤ 50%
- inhibition at 20 µM [2]: ≤ 50%
Compound: C#Cc1cccc(Nc2ncnc3cc(OCCOC)c(OCCOC)cc23)c1 [erlotinib, Erlotinib]

Compound: COc1cc(N2CCC(N3CCN(C)CC3)CC2)ccc1Nc1ncc(Cl)c(Nc2ccccc2P(C)(C)=O)n1 [Brigatinib]
- IC50 ([1]; 30-min preincubation with inhibitor at 37 °C, 8.9 µM [14C]metformin, 2 min uptake, read-out: IC50, hOCT2-mediated [14C]metformin uptake, Preincubation): 15500 ± 500 nM
- IC50 ([1]; coincubation (no preincubation), preincubation study, 8.9 µM [14C]metformin, 2 min uptake, read-out: IC50, hOCT2-mediated [14C]metformin uptake, Coincubation): 36000 ± 1100 nM
- IC50 ([1]; substrate 1 µM [3H]MPP+, HEK293, 2 min, 37 °C, mean ± SD, read-out: IC50, hOCT2-mediated MPP+ uptake): > 300000 nM
- IC50 ([1]; substrate 1 µM mIBG, HEK293, 2 min, 37 °C, mean ± SD, read-out: IC50, hOCT2-mediated mIBG uptake): > 100000 nM
- IC50 ([1]; substrate 8.9 µM [14C]metformin, HEK293, 2 min, 37 °C, mean ± SD, read-out: IC50, hOCT2-mediated metformin uptake): 30200 ± 1500 nM
- In vivo DDI study recommendation, hOCT2 ([1]; substrate MPP+): No
- In vivo DDI study recommendation, hOCT2 ([1]; substrate mIBG): No
- In vivo DDI study recommendation, hOCT2 ([1]; substrate metformin): No
- inhibition of hOCT2 (in words) ([1]; substrates metformin, mIBG, MPP+): not a strong inhibitor
- substrate dependency, hMATE2-K: more potent with metformin than with mIBG ([2]; IC50 ratio mIBG/metformin): approximately 4 fold
- IC50 ([2]; substrate 1 µM [3H]MPP+, read-out: IC50, hMATE2-K-mediated MPP+ uptake): > 300000 nM
- IC50 ([2]; substrate 8.9 µM [14C]metformin, read-out: IC50, hMATE2-K-mediated metformin uptake): 38300 ± 1700 nM
- In vivo DDI study recommendation, hMATE2-K ([2]; substrate MPP+): No
- In vivo DDI study recommendation, hMATE2-K ([2]; substrate mIBG): No
- In vivo DDI study recommendation, hMATE2-K ([2]; substrate metformin): No
- IC50 [3]: 1120 ± 40 nM
- inhibition at 20 µM ([3]; HEK293, 2 min, 37 °C): > 50%
- substrate dependency, hOCT1: more potent with metformin than with MPP+ ([3]; IC50 ratio MPP+/metformin): ~22 fold
- substrate dependency, hOCT1: more potent with metformin than with mIBG ([3]; IC50 ratio mIBG/metformin): approximately 15 fold
- IC50 ([3]; substrate 1 µM [3H]MPP+, HEK293, 2 min, 37 °C, mean ± SD, read-out: IC50, hOCT1-mediated MPP+ uptake): 25100 ± 1200 nM
- IC50 ([3]; substrate 1 µM mIBG, HEK293, 2 min, 37 °C, mean ± SD, read-out: IC50, hOCT1-mediated mIBG uptake): 17100 ± 600 nM
- In vivo DDI study recommendation, hOCT1 ([3]; substrate MPP+): No
- In vivo DDI study recommendation, hOCT1 ([3]; substrate mIBG): No
- In vivo DDI study recommendation, hOCT1 ([3]; substrate metformin): Yes
- IC50 [4]: 850 ± 70 nM
- inhibition at 20 µM ([4]; HEK293, read-out: inhibition of mIBG uptake by hOCT3): > 80%
- substrate dependency, hOCT3: differences in IC50 values across substrates ([4]; metformin, mIBG, MPP+): up to 3 fold
- IC50 ([4]; substrate 1 µM [3H]MPP+, HEK293, 2 min, 37 °C, mean ± SD, read-out: IC50, hOCT3-mediated MPP+ uptake): 2540 ± 140 nM
- IC50 ([4]; substrate 1 µM mIBG, HEK293, 2 min, 37 °C, mean ± SD, read-out: IC50, hOCT3-mediated mIBG uptake): 1200 ± 30 nM
- In vivo DDI study recommendation, hOCT3 ([4]; substrate MPP+): Yes
- In vivo DDI study recommendation, hOCT3 ([4]; substrate mIBG): Yes
- In vivo DDI study recommendation, hOCT3 ([4]; substrate metformin): Yes
- inhibition at 20 µM ([5]; HEK293, 2 min, 37 °C): > 80%
- IC50 ([5]; IC50, hMATE1-mediated MPP+ uptake, substrate 1 µM [3H]MPP+, HEK293, 2 min, 37 °C, mean ± SD): 2030 ± 240 nM
- IC50 ([5]; IC50, hMATE1-mediated [14C]metformin uptake, Coincubation, coincubation (no preincubation), preincubation study, 8.9 µM [14C]metformin, 2 min uptake): 1410 ± 60 nM
- IC50 ([5]; IC50, hMATE1-mediated [14C]metformin uptake, Preincubation, 30-min preincubation with inhibitor at 37 °C, 8.9 µM [14C]metformin, 2 min uptake): 970 ± 90 nM
- IC50 ([5]; IC50, hMATE1-mediated mIBG uptake, substrate 1 µM mIBG, HEK293, 2 min, 37 °C, mean ± SD): 1930 ± 150 nM
- IC50 ([5]; IC50, hMATE1-mediated metformin uptake, substrate 8.9 µM [14C]metformin, HEK293, 2 min, 37 °C, mean ± SD): 1670 ± 140 nM
- substrate dependency, hMATE1: differences in IC50 values across substrates ([5]; metformin, mIBG, MPP+): below two-fold
- In vivo DDI study recommendation, hMATE1 ([5]; substrate MPP+): Yes
- In vivo DDI study recommendation, hMATE1 ([5]; substrate mIBG): Yes
- In vivo DDI study recommendation, hMATE1 ([5]; substrate metformin): Yes
